Assay results as given in patent publication US20240201191A1, “CITRULLINATED PROTEINS AS BIOMARKERS AND THERAPY TARGETS FOR CANCER” (BOARD OF REGENTS, THE UNIVERSITY OF TEXAS SYSTEM, priority 2022, published 2024).
Square brackets hold non-standard residues; d marks the D form. Ends that are not written are not given here. Cit = NC(=O)NCCC[C@H](N)C(=O)O

Experiments:
[1] = test system: B cell-mediated IgG secretion; experiment: ELISpot IgG assay; assay type: cell-based; details: compared to media
Text: (§1) Using ELISpot assays, we tested the unmodified and citrullinated forms of three pairs of synthesized ENO1 peptides predicted as having high MHC-II binding affinity and assessed B cell-mediated IgG and T cell-mediated IFNγ secretion (Table 9).

[2] = test system: T cell-mediated IFNγ secretion; experiment: ELISpot IFNγ assay; assay type: cell-based; details: compared to media
Text: as §1

Row | Substance | B cell-mediated IgG response (ELISpot) [1] | T cell-mediated IFNγ secretion (ELISpot) [2] | T cell-mediated IFNγ secretion (ELISpot) ([2]; listed as citrullinated peptide 1)
1 | AMQEFMILPVGASSFR*EAMR*GA (AMQEFMILPVGASSF[Cit]EAM[Cit]GA) [citrullinated peptide-2, citrullinated synthesized ENO1 peptide, R16(Cit.), R20(Cit.)] | elicited a potent IgG response |  | 
2 | R*AAVPSGASTGIYEALELR*DNDKTR* (RAAVPSGASTGIYEALELRDNDKTR; citrullinated arginines; MOD_RES (1)..(1) Citrullinated Arginine; MOD_RES (19)..(19) Citrullinated Arginine; MOD_RES (25)..(25) Citrullinated Arginine) [citrullinated peptide-1, citrullinated synthesized ENO1 peptide, position 32-56] | elicited a potent IgG response | modest increase in IFNg secretion | higher amount of INFγ response
